Laboratory results published in patent publication US20150119372A1, “APPLICATION OF 18-METHYL-15SS,16SS-METHYLENE-19-NOR-20-SPIROX-4-EN-3-ONE SYSTEMS IN THE TREATMENT OF MENORRHAGIA, AS WELL AS INTRAUTERINE SYSTEMS CONTAINING 18-METHYL-15SS,16SS-METHYLENE-19-NOR-20-SPIROX-4-EN-3-ONE FOR TREATING UTERINE BLEEDING DISORDERS” (BAYER PHARMA AKTIENGESELLSCHAFT, priority 2012, published 2015).

Assays:
uterus = assay: Uterine horn weight gain after implantation of progestin-containing IUS (rod) in ovary-resected rats; type: in vivo, rat; conditions: IUS (rod) in right uterine horn, FIG. 1/4
Description: (§1) The local uterine action of the progestin compared to systemic side effects (dissociation) was investigated on the basis of studies using rats. The uterus of ovary-resected rats responds to implantation of progestin-containing IUS (rods) with decidualization and weight gain. The local progestin effects were also determined on the basis of changes in gene expression.
(§2) Ovary-resected female rats were treated with estradiol (E2) for three days (0.2 μg/day/animal, subcutaneous dosing). On day 4, an IUS (rod) was implanted into the right uterine horn of each animal. The left uterine horn remained untreated for internal comparison. Administration of E2 was continued with a daily dose of 0.1 μg/animal to ensure responsiveness of the uterus (maintaining progesterone-receptor expression) to progestins. Blood was taken for LH level measurements on days 4, 10 and 17.

[1] = In vivo break-down in animal species; conditions: all animal species studied in vivo
luteinizing hormone (LH) = assay: Serum LH level in ovary-resected rats carrying IUS (rod), as a sign of systemic effect; type: in vivo, rat; conditions: FIG. 2/4
Description: Serum levels of luteinizing hormone (LH) are used for detecting systemic effects of the locally administered progestin. Basal serum-LH levels of ovary-resected rats are elevated compared to the LH levels of intact control animals. Undesired systemic efficacy of the uterine-administered progestin can be detected by a decrease in the LH level.
as §2

IGFBP-1 = assay: Gene expression analysis of marker genes in uterine tissue of rats carrying IUS (rods); type: in vivo; conditions: rat uterus, FIG. 3/4
Description: as §1
as §2, with “17. […]” for “17.”
Gene expression analysis was carried out with from 50 ng to 200 ng of cDNA per reaction on an SDS7900HT Real.time PCR system (Applied Biosystems, Carlsbad, USA) using TaqMan probes (Applied Biosystems; IGFBP-1 Rn00565713_m1, Cyp26a1 Rn00590308_m1, PPIA Rn00690933_m1) and the Fast Blue qPCR MasterMix Plus (Eurogentec, Liège, Belgium; #RT-QP2X-03+FB). For relative quantification, cyclophilin A (PPIA) was used as an endogenous control. Relative expression levels were calculated according to the comparative delta delta CT method.

[2] = In-vitro metabolic studies (liver); type: in vitro ADME; conditions: all in-vitro metabolic studies (liver)
[3] = In vitro (liver) break-down for humans; type: in vitro ADME; conditions: human liver in vitro
Description: The rapid in-vitro breakdown in the liver may also indicate rapid in-vivo breakdown, resulting in a very low systemic exposition of 18-methyl-15β,16β-methylene-19-nor-20-spirox-4-en-3-one and 18-Methyl-6α,7α,15β,16β-dimethylene-19-nor-20-spirox-4-en-3-one after administration through an IUS being calculated. The expected substance levels (Css=concentration at steady state) are calculated from the rate of release from the IUS divided by the clearance. Using a dose of 20 μg per day and woman, which corresponds to that of Mirena, gives a calculated systemic exposition (load) for 18-methyl-15β,16β-methylene-19-nor-20-spirox-4-en-3-one and 18-methyl-6α,7α,15β,16β-dimethylene-19-nor-20-spirox-4-en-3-one, which is over 30 times lower in comparison with Mirena®.

human androgen receptor = target: T1, human androgen receptor (Homo sapiens, UniProt P10275); assay: hAR transactivation in PC3 cells stably transfected with hAR and MTV-luc reporter gene; type: cell-based; conditions: hAR, MTV-luc reporter
T1 construct: expressed in transfected cells; host or cells: PC3 (human prostate carcinoma) cells, stably transfected with hAR and the MTV-luc reporter
T1 sequence (P10275 1-920): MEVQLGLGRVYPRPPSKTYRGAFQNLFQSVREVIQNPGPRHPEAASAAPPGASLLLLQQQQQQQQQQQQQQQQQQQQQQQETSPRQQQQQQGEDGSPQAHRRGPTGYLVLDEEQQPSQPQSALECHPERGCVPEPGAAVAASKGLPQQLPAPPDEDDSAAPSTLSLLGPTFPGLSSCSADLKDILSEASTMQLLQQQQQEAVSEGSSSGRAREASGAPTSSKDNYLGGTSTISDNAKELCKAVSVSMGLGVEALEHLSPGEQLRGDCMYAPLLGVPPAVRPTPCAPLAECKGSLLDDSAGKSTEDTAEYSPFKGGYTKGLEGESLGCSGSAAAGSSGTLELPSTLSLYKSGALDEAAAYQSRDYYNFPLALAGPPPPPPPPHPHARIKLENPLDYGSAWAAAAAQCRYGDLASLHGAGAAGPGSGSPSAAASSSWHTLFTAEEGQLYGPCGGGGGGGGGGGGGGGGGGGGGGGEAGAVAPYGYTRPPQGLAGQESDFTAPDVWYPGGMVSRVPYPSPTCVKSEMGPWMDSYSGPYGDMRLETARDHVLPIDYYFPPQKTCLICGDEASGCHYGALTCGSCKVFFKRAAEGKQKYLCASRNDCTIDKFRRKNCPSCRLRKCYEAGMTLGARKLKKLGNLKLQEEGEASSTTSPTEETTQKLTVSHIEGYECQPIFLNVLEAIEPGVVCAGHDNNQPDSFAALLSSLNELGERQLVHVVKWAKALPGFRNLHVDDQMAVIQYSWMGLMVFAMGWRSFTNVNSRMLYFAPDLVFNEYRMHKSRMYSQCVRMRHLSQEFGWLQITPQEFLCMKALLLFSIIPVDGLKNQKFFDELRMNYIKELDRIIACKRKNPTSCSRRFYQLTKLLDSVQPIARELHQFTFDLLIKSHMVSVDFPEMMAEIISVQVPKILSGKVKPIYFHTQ
Description: For this, different concentrations of the test substances were to cells with stable expression of the human androgen receptor, and activation of the androgen receptor can be detected via a reporter gene.
For transactivation studies, PC3 (human prostate carcinoma) cells which have been stably transfected with hAR and the MTV-luc reporter gene were used. […] The cells were cultured at 37° C. and 5% CO2. The test medium corresponded to the culture medium, except that 10% FCS was replaced with 5% activated carbon-treated FCS (CCS). Cells were seeded in wells of a 96 well plate (“CulturPlate” from Packard #6005180) with 2×10^4 cells/well/200 μl of test medium. The cells were incubated with different concentrations of the test substances, and 80 μl of substrate were measured using the “steadylite HTS Reporter Gene Assay System” from Perkin Elmer.

[4] = Mirena use; cited from earlier work
[5] = dose range tested: compound A 0.6-10 μg per animal and day, compound B 1-45 μg/animal and day

With `CC[C@]12CCC3C4CCC(=O)C=C4CCC3C1[C@@H]1C[C@@H]1[C@@]21CCCO1` (stereo partly drawn) [compound A, 18-methyl-15β,16β-methylene-19-nor-20-spirox-4-en-3-one] the “local efficacy by way of weight gain in the IUS-carrying uterine horn” value (uterus) was “dose-dependent local efficacy by way of weight gain”, the “break-down rate in vivo” value [1] was “very fast break-down rate” and the “LH decrease (systemic side effect)” value (luteinizing hormone (LH); 10 μg/animal and day dose) was “exception”. For the same molecule, the “LH decrease (systemic side effect)” value (luteinizing hormone (LH); [5]) was “no LH decrease”, the “rate of release from the IUS at which IGFBP-1 gene expression is induced, lower than with levonorgestrel” value (IGFBP-1) was “approx. 7 ×” and the “break-down rate in in-vitro metabolic studies (liver)” value [2] was “very fast break-down rate”. For the same molecule, the “break-down rate in vitro (liver) for humans” value [3] was “Very rapid break-down rates”.
In the case of `CC[C@]12CCC3C4CCC(=O)C=C4C4CC4C3C1[C@@H]1C[C@@H]1[C@@]21CCCO1` (stereo partly drawn) [compound B, 18-methyl-6α,7α,15β,16β-dimethylene-19-nor-20-spirox-4-en-3-one], the “local efficacy by way of weight gain in the IUS-carrying uterine horn” value (uterus) is reported as “dose-dependent local efficacy by way of weight gain”, the “break-down rate in vivo” value [1] is reported as “very fast break-down rate” and the “LH decrease (systemic side effect)” value (luteinizing hormone (LH); [5]) is reported as “no LH decrease”. For the same molecule, the EC50 (human androgen receptor) was 56 nM, the “break-down rate in in-vitro metabolic studies (liver)” value [2] was “very fast break-down rate” and the “break-down rate in vitro (liver) for humans” value [3] was “Very rapid break-down rates”.
For `C#C[C@]1(O)CC[C@H]2[C@@H]3CCC4=CC(=O)CC[C@@H]4[C@H]3CC[C@@]21CC` [levonorgestrel], the “average plasma levels of active ingredient” value [4] is given as “around 206 pg/ml”.
